Experimental data: patent publication US20070244076A1, “Site and Rate Selective Prodrug Formulations of D609 with Antioxidant and Anticancer Activity” (priority 2003, published 2007)
Structures can show the parent of a compound that is named as a salt. Numbered stars: 1 amine (or outer) side, 2 acyl side, 3 side chain; on linkers, the order of the positions; unused ones are H or OH. Bridge positions count the residues as written; N and C are the ends. Square brackets hold non-standard residues; d marks the D form. Peptide text beside a SMILES is read from it. I, II: the chains in the order shown. Actinocin(9to1) = Cc1c2oc3c(C)ccc(C(=O)[*:1])c3nc-2c(C(=O)[*:2])c(N)c1=O; NMeV = CN[C@H](C(=O)O)C(C)C; Sar = CNCC(=O)O

Assays:
[1] = cited from earlier work
[2] = previously untreated chronic myelogenous leukemia; cited from earlier work
[3] = cited from earlier work; remark: listed apart in the source
[4] = test system: U937 cells; assay: U937 apoptosis, Annexin V-FITC staining and flow cytometry; assay type: cell-based, Human; settings: for induction of apoptosis: 24 hr, low dose of H7 (25 μM) or ceramide (5 μM)
Description: It is well known that ceramide functions as a negative cell regulator that can induce cell cycle arrest, senescence or apoptosis. In contrast, DAG stimulates cell proliferation and promotes cell survival, primarily via activation of PKC. To determine if the changes in the levels of ceramide and DAG resulting from SMS inhibition contribute to D609-induced apoptosis in U937 cells, the cells were incubated with vehicle, H7 (a PKC inhibitor), ceramide, or H7 plus ceramide. U937 cells (1×10^6/ml) were incubated with 5 μM C6-ceramide and 25 μM H7 alone or combination for 24 hr at 37° C. Apoptosis of the cells was measured by Annexin V-FITC staining and flow cyotmetry and expressed as percent of Annexin V positive cells. a, p<0.05 vs Control; b, p<0.05 vs H7- or C6-treated cells (FIG. 11).
In these experiments, U937 cells were pre-incubated with PMA (25 nM) for 30 min. and then were cultured with vehicle or D609 (150 μM) for 24 hrs.

[5] = test system: Porcine liver esterase (PLE); assay: Esterase-catalyzed hydrolysis of D609 prodrugs; assay type: in vitro ADME; settings: for T1/2 / kobs: 300 μM, 0.1 unit/ml PLE, 37° C., pH 7.4
Description: FIG. 18A, FIG. 18B, FIG. 18C: Esterase-catalyzed hydrolysis of D609 prodrugs. Prodrugs (300 μM in 15% DMSO/PBS, pH 7.4), 1 (FIG. 18A), 2 (FIG. 18B) and 3 (FIG. 18C), were incubated at 37° C. in the presence of 0.1 unit/ml PLE. […] The data are presented as the mean±SEM of three independent assays.
To determine the hydrolytic property of D609 prodrugs 1, 2, and 3 (300 μM in 15% DMSO/PBS, pH7.4), these prodrugs were incubated with 0.1 unit/ml PLE at 37° C. After various times during incubation, the rate of hydrolysis of these D609 prodrugs was monitored by HPLC analysis. […] The concentration of D609 (μM) was calculated based on a linear D609-DTNB standard curve. The pseudo-first-order plots for the hydrolysis of these prodrugs were constructed from the logarithm of remaining ester versus time (FIG. 18). The end points of the reaction (150 min) were defined as when the hydrolysis of these prodrugs was over 99% complete and the release of D609 reached plateau. The pseudo-first-order rate constant (Kobs) and T1/2 (=0.693/Kobs) were calculated based on the slope of the linear portion of the curve for each of these prodrugs and are presented in Table 1 (Gilmer et al., 2002).

[6] = target: phospholipase C (Type XI from B. cereus) (Bacillus cereus, UniProt P09598); assay type: biochemical; settings: 2 hrs at 37° C., pNPP 40 mM
Description: (§1) In this study, p-nitrophenyl-phosphorylcholine (pNPP, 40 mM) was incubated with 2 U/ml phospholipase C (Type XI from B. cereus) in the presence or absence of various concentrations of inhibitors for 2 hrs at 37° C. The amount of the cleaved substrate pNPP was quantified by determination of the optical density at 410 nm using an ELISA reader. The results are expressed as percent of vehicle control and presented as means±SEM (n=3) (FIG. 9A). NBD-C6-ceramide and PC were incubated with U937 cell lysates containing 50 μg protein in the presence or absence of various concentrations of inhibitors for 30 min at 30° C. The formation of NBD-C6-sphingomyelin as analyzed by TLC and quantified by determination of the fluorescent intensity of NBD-C6-sphingomyelin using a phosphorimager. The results are expressed as percent of vehicle control (FIG. 9B). U937 cells were incubated with different concentrations of inhibitors for 48 hours.

[7] = test system: sphingomyelin synthase (SMS); assay: SMS activity in U937 cell lysates with inhibitor added (cell lysate-based in vitro assay); assay type: biochemical, Human; settings: 30 min at 30° C.
Description: as §1

[8] = test system: alkaline phosphatase; settings: 222 μM, 3.125 U/ml, pH 9.0, 37° C.
[9] = Chevion et al., 1997; cited from earlier work

phospholipase C (Type XI from B. cereus), sequence (P09598 39-283 limits assumed): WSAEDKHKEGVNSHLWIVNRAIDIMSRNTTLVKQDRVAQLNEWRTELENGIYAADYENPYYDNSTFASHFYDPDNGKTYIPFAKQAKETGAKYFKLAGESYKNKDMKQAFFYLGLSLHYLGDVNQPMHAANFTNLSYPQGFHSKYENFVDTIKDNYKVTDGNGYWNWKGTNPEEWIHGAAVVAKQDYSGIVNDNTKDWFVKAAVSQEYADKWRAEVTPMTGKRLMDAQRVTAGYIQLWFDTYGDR

Cc1c2oc3c(C)ccc(C(=O)N[C@@H]4C(=O)N[C@H](C(C)C)C(=O)N5CCC[C@H]5C(=O)N(C)CC(=O)N(C)[C@@H](C(C)C)C(=O)O[C@@H]4C)c3nc-2c(C(=O)N[C@@H]2C(=O)N[C@H](C(C)C)C(=O)N3CCC[C@H]3C(=O)N(C)CC(=O)N(C)[C@@H](C(C)C)C(=O)O[C@@H]2C)c(N)c1=O [Actinomycin D] (I: T[dV]P[Sar][NMeV] / II: T[dV]P[Sar][NMeV]; ester I:1-I:C, II:1-II:C; linker I:N-II:N via Actinocin(9to1))
excreted intact into the bile ([1]; in vivo): Half of the dose | excreted intact into the urine ([1]; in vivo): 10% | half-life (elimination) ([1]; in vivo): about 36 hr | passage of the blood-brain barrier ([1]; in vivo): does not pass the blood-brain barrier

CS(=O)(=O)OCCCCOS(C)(=O)=O [Busulfan, 1,4-butanediol dimethanesulfonate]
adults obtaining hematologic remission [2]: Approximately 90%

O=C(O)CCCc1ccc(N(CCCl)CCCl)cc1 [Chlorambucil, 4-[bis(2-chlorethyl)amino] benzenebutanoic acid]
oral absorption ([1]; in vivo): rapidly and completely absorbed from the gastrointestinal tract

N.N.[Cl][Pt][Cl] [Cisplatin]
oral absorption ([1]; in vivo): not absorbed orally

COc1cccc2c1C(=O)c1c(O)c3c(c(O)c1C2=O)C[C@@](O)(C(C)=O)C[C@@H]3O[C@H]1C[C@H](N)[C@H](O)[C@H](C)O1 [Daunorubicin, 5,12-Naphthacenedione, (8S-cis)-8-acetyl-10-[(3-amino-2,3,6-trideoxy-a-L-lyxo-hexanopyranosyl)oxy]-7,8,9,10-tetrahydro-6,8,11 trihydroxy-10-methoxy-, hydrochloride]
oral absorption ([1]; in vivo): Oral absorption is poor | half-life (elimination) ([1]; in vivo): about 19 hr

COc1cccc2c1C(=O)c1c(O)c3c(c(O)c1C2=O)C[C@@](O)(C(=O)CO)C[C@@H]3O[C@H]1C[C@H](N)[C@H](O)[C@H](C)O1 [Doxorubicin, 5,12-Naphthacenedione, (8s-cis)-10-[(3-amino-2,3,6-trideoxy-α-L-lyxo-hexopyranosyl)oxy]-7,8,9,10-tetrahydro-6,8,11-trihydroxy-8-(hydroxyacetyl)-1-methoxy-hydrochloride]
oral absorption ([1]; in vivo): absorbed poorly | half-life (elimination) ([1]; in vivo): about 30 hr

O=NN(CCCl)C(=O)NC1CCCCC1 [Lomustine, 1-(2-chloro-ethyl)-3-cyclohexyl-1 nitrosourea]
radioactivity excreted as degradation products ([1]; oral, 30 mg/m^2 to 100 mg/m^2, within 24 hours): about half

CO[C@@]12[C@H](COC(N)=O)C3=C(C(=O)C(C)=C(N)C3=O)N1C[C@@H]1N[C@@H]12 [Mitomycin]
time required to reduce the serum concentration by 50% ([3]; 30 mg. bolus injection): 17 min | dose excreted unchanged in the urine ([3]; in vivo): Approximately 10%

CCCCCCCCCCCCCC(=O)O[C@@H]1[C@@H](C)[C@@]2(O)[C@@H](C=C(CO)C[C@]3(O)C(=O)C(C)=C[C@@H]23)[C@@H]2C(C)(C)[C@]12OC(C)=O [PMA]
effect on D609-induced apoptosis ([4]; PMA 25 nM 30 min before D609 150 μM, 24 hrs): partially attenuated D609-induced apoptosis

CC(=O)OCSC(=S)OC1CC2CC1C1CCCC21 (stereo not shown) [Prodrug 1, S-methyleneoxyacetyl D609]
T1/2 [5]: 3.34 min | kobs [5]: 0.2074 min⁻¹

CC(C)(C)C(=O)OCSC(=S)OC1CC2CC1C1CCCC21 (stereo not shown) [Prodrug 3, S-methyleneoxypivalyl D609]
T1/2 [5]: 23.22 min | kobs [5]: 0.02984 min⁻¹ | % D609 (molar recovery of D609) ([5]; complete hydrolysis by esterase): 60%

CC1CNCCN1S(=O)(=O)c1cccc2cnccc12 (stereo not shown) [Prodrug H7]
induction of apoptosis [4]: modest

OC1CC2CC1C1CCCC21 (stereo not shown) [Tricyclodecanol]
inhibition of PC-PLC activity [6]: devoid of any of these activities | inhibition of SMS activity [7]: devoid of any of these activities

CC[C@]1(O)C[C@@H]2CN(CCc3c([nH]c4ccccc34)[C@@](C(=O)OC)(c3cc4c(cc3OC)N(C)[C@H]3[C@@](O)(C(=O)OC)[C@H](OC(C)=O)[C@]5(CC)C=CCN6CC[C@]43[C@@H]65)C2)C1 [Vinblastine]
oral absorption ([1]; in vivo): Unpredictable absorption | excreted intact into the urine ([1]; in vivo): Approximately 15% | recovered in the feces after biliary excretion ([1]; in vivo): about 10% | plasma half-life after distribution (first) ([1]; intravenous injection): approximately 1 hours | plasma half-life after distribution (second) ([1]; intravenous injection): ~72000 s | peak concentration in plasma ([1]; usual clinical doses): approximately 0.4 mM

CC[C@]1(O)C[C@H]2CN(CCc3c([nH]c4ccccc34)[C@@](C(=O)OC)(c3cc4c(cc3OC)N(C=O)[C@H]3[C@@](O)(C(=O)OC)[C@H](OC(C)=O)[C@]5(CC)C=CCN6CC[C@]43[C@@H]65)C2)C1 [Vincristine]
oral absorption ([1]; in vivo): Unpredictable absorption | terminal half-life ([1]; plasma): about 24 hours

CCCCCCCCCCCCCC=CC(O)C(CO)NC(=O)CCCCC (stereo not shown) [ceramide]
induction of apoptosis [4]: modest

CC(C)(C)OP(=O)(OCSC(=S)OC1CC2CC1C1CCCC21)OC(C)(C)C (stereo not drawn) [compound 7, S-(methylenoxy)-D609, di(t-butoxy)phosphoryl]
time to complete hydrolysis [8]: ≤ 60 min

S=C(S)OC1CCCCC1 [cyclohexyl xanthate]
inhibition of PC-PLC activity [6]: dose-dependently inhibited | inhibition of SMS activity [7]: had no effect

COc1cccc2c1C(=O)c1c(O)c3c(c(O)c1C2=O)C[C@@](O)([C@H](C)O)C[C@@H]3O[C@H]1C[C@H](N)[C@H](O)[C@H](C)O1 [daunorubicinol]
half-life (elimination) ([1]; in vivo): about 27 hr

O=C1O[C@H]([C@@H](O)CO)C(O)=C1O [vitamin C]
E1/2 [9]: 380 mV
